Source: the supplement of paper PMC10307832

Columns and labels:
Assay in all cases: relative viability (nuclei count vs DMSO), 5 days (fraction); higher = more cells survive
Imatinib + Luminespib = compound: Cc1ccc(NC(=O)c2ccc(CN3CCN(C)CC3)cc2)cc1Nc1nccc(-c2cccnc2)n1 [Imatinib] + CCNC(=O)c1noc(-c2cc(C(C)C)c(O)cc2O)c1-c1ccc(CN2CCOCC2)cc1 [Luminespib] (partner 0.01 µM)
Procedure, shortened: (§1)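 Dosing by pin tool came one day after lung cancer cell lines were seeded in 1536-well plates, using either one drug or a fixed anchor-drug dose plus five library-drug doses (not always all listed) in √10 steps. After 5 days, nuclei were counted on 4× images. Relative viability is treated-well nuclei count divided by vehicle-well nuclei count, and values are medians of duplicate plates.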

Imatinib + Decitabine = compound: Cc1ccc(NC(=O)c2ccc(CN3CCN(C)CC3)cc2)cc1Nc1nccc(-c2cccnc2)n1 [Imatinib] + Nc1ncn([C@H]2C[C@H](O)[C@@H](CO)O2)c(=O)n1 [Decitabine] (partner 2 µM)
Procedure, shortened: as §1

Imatinib + Dasatinib = compound: Cc1ccc(NC(=O)c2ccc(CN3CCN(C)CC3)cc2)cc1Nc1nccc(-c2cccnc2)n1 [Imatinib] + Cc1nc(Nc2ncc(C(=O)Nc3c(C)cccc3Cl)s2)cc(N2CCN(CCO)CC2)n1 [Dasatinib] (partner 0.075 µM)
Procedure, shortened: as §1

Imatinib + Olaparib = compound: Cc1ccc(NC(=O)c2ccc(CN3CCN(C)CC3)cc2)cc1Nc1nccc(-c2cccnc2)n1 [Imatinib] + O=C(c1cc(Cc2n[nH]c(=O)c3ccccc23)ccc1F)N1CCN(C(=O)C2CC2)CC1 [Olaparib] (partner 8 µM)
Procedure, shortened: as §1

Row | Cell Line | relative viability (Imatinib + Luminespib; first compound 0.02 µM) | relative viability (Imatinib + Luminespib; first compound 0.2 µM) | relative viability (Imatinib + Luminespib; first compound 2 µM) | relative viability (Imatinib + Decitabine; first compound 0.02 µM) | relative viability (Imatinib + Decitabine; first compound 0.06325 µM) | relative viability (Imatinib + Decitabine; first compound 0.2 µM) | relative viability (Imatinib + Decitabine; first compound 0.6325 µM) | relative viability (Imatinib + Decitabine; first compound 2 µM) | relative viability (Imatinib + Dasatinib; first compound 0.02 µM) | relative viability (Imatinib + Dasatinib; first compound 0.2 µM) | relative viability (Imatinib + Dasatinib; first compound 0.6325 µM) | relative viability (Imatinib + Dasatinib; first compound 2 µM) | relative viability (Imatinib + Olaparib; first compound 0.02 µM) | relative viability (Imatinib + Olaparib; first compound 0.06325 µM) | relative viability (Imatinib + Olaparib; first compound 0.2 µM) | relative viability (Imatinib + Olaparib; first compound 0.6325 µM) | relative viability (Imatinib + Olaparib; first compound 2 µM) | relative viability (Imatinib + Luminespib; first compound 0.06325 µM) | relative viability (Imatinib + Luminespib; first compound 0.6325 µM) | relative viability (Imatinib + Dasatinib; first compound 0.06325 µM)
1 | NCI-H2126 | 0.955 | 0.979 | 0.959 | 0.545 | 0.522 | 0.634 | 0.58 | 0.538 | 0.705 | 0.537 | 0.457 | 0.517 | 0.892 | 0.742 | 0.92 | 0.985 | 0.924 |  |  | 
2 | NCI-H661 | 0.931 | 1.01 | 0.874 | 0.597 | 0.592 | 0.532 | 0.585 | 0.613 | 1.09 | 0.753 | 0.958 | 0.769 | 0.747 | 0.94 | 0.853 | 0.773 | 0.703 | 1.03 | 0.934 | 0.57
3 | NCI-H1944 | 0.831 |  | 0.787 | 0.427 | 0.394 | 0.474 | 0.401 | 0.444 | 0.198 | 0.2 | 0.2 | 0.234 | 0.448 | 0.337 | 0.414 | 0.394 | 0.459 | 0.655 | 0.665 | 0.208
4 | ChaGo-K-1 | 0.585 | 0.603 | 0.56 | 0.525 |  | 0.534 | 0.503 | 0.503 | 0.58 | 0.522 | 0.515 | 0.579 | 0.389 |  | 0.394 | 0.42 | 0.45 | 0.592 | 0.624 | 0.51
5 | LCLC-103H | 1.03 | 1.04 | 0.863 | 0.717 | 0.741 | 0.767 | 0.74 | 0.754 | 0.637 | 0.471 | 0.471 | 0.388 | 0.776 | 0.773 | 0.834 | 0.694 |  | 0.8 | 0.892 | 0.436
6 | HOP-62 | 1.06 | 1.03 |  | 0.199 |  | 0.25 | 0.232 | 0.211 | 0.726 | 0.642 | 0.576 | 0.54 | 0.408 | 0.478 | 0.456 | 0.498 | 0.372 | 0.84 | 0.886 | 
7 | HCC-15 | 0.311 | 0.358 | 0.297 | 0.605 | 0.598 | 0.638 | 0.677 | 0.524 | 0.722 | 0.668 | 0.594 | 0.598 | 0.773 |  | 0.719 | 0.791 | 0.742 |  | 0.33 | 
8 | NCI-H1793 | 0.253 | 0.164 | 0.189 | 0.477 |  | 0.522 | 0.447 | 0.445 | 0.421 | 0.388 | 0.368 | 0.388 | 0.92 |  | 1.22 | 0.782 | 0.88 |  | 0.167 | 
9 | NCI-H1755 | 0.402 | 0.273 | 0.418 | 0.689 | 0.693 | 0.702 | 0.708 | 0.69 | 0.415 | 0.41 | 0.422 | 0.408 | 0.946 | 0.848 | 0.968 | 0.881 | 0.85 | 0.371 | 0.454 | 0.392
10 | NCI-H322M | 0.987 | 0.826 | 0.826 | 0.751 | 0.692 | 0.661 | 0.655 | 0.756 | 0.245 | 0.248 | 0.237 | 0.253 | 0.821 | 0.857 | 0.734 | 0.678 | 0.807 | 0.868 | 0.873 | 0.259
11 | NCI-H650 | 0.887 | 0.641 | 0.769 | 0.299 | 0.36 | 0.291 | 0.313 | 0.262 | 0.5 | 0.488 | 0.53 | 0.406 | 0.432 | 0.405 | 0.392 | 0.431 | 0.383 | 0.67 | 0.796 | 0.425
12 | NCI-H2009 | 1.15 | 0.888 | 0.934 | 0.434 | 0.346 | 0.346 | 0.425 | 0.363 | 0.282 | 0.304 | 0.253 | 0.288 | 0.692 | 0.882 | 0.796 | 0.671 | 0.661 |  | 1.08 | 
13 | NCI-H1437 | 1.25 | 1.28 | 1.08 | 0.587 | 0.664 | 0.597 | 0.629 | 0.578 | 0.444 | 0.409 | 0.25 | 0.334 | 0.692 | 0.703 | 0.719 | 0.686 | 0.604 | 1.18 | 1.22 | 0.309
14 | NCI-H2023 | 1.04 | 1.07 | 1.1 | 0.228 | 0.252 | 0.24 | 0.22 | 0.223 | 0.751 | 0.565 | 0.591 | 0.509 | 0.552 | 0.472 | 0.45 | 0.62 | 0.408 | 1.03 | 1.17 | 0.33
15 | LCLC-97TM1 | 0.89 | 0.864 | 0.813 | 0.208 |  | 0.253 | 0.216 | 0.226 | 0.926 | 0.875 | 0.81 | 0.86 | 0.539 |  | 0.269 | 0.419 | 0.33 |  | 0.889 | 
16 | NCI-H2347 | 0.499 | 0.431 | 0.608 | 0.58 |  | 0.653 | 0.615 | 0.632 | 0.317 | 0.256 | 0.283 | 0.251 | 0.551 |  | 0.614 | 0.587 | 0.479 | 0.425 | 0.475 | 0.266
17 | NCI-H1993 | 0.949 | 0.885 | 0.854 | 0.629 | 0.718 | 0.662 | 0.643 | 0.528 | 0.678 | 0.573 | 0.522 | 0.521 | 1.15 | 1.04 | 1.16 | 0.968 | 0.983 | 0.745 | 0.608 | 0.564
